What was measured:
[1] = biological target: T1, GABA-A receptor; anion channel (Mus musculus) (UniProt Q8BHJ7+P26048+Q8QZW7+P50571+Q9R0Y8+P22723+A2AMW3+P62812+Q9JLF1+P26049+P22933+Q9D6F4+P63080+P27681+P16305); test: Ex vivo inhibition of [35S]TBPS binding to mouse brain membranes in the presence of Diazepam after 30 min; assay type: tissue-based; details: Membrane
[2] = biological target: T1, GABA-A receptor; anion channel (Mus musculus); test: Ex vivo inhibition of [35S]TBPS binding to mouse brain membranes after 30 min; assay type: tissue-based; details: Membrane
[3] = biological target: Gamma-aminobutyric acid receptor subunit gamma-1 (Rattus norvegicus, UniProt P23574); test: Inhibition of GABA-stimulated 36Cl- uptake by membrane vesicles of rat cerebral cortex; assay type: functional, tissue-based
[4] = biological target: GABA-A receptor; anion channel; test: In vitro inhibition of [35S]TBPS binding to EDTA/water-dialyzed mouse brain P2 membranes; assay type: tissue-based
[5] = biological target: T1, GABA-A receptor; anion channel (Mus musculus); test: Ex vivo inhibition of [35S]TBPS binding to mouse brain membranes in the presence of phenobarbital after 30 min; assay type: tissue-based; details: Membrane
[6] = biological target: GABA-A receptor; anion channel; test: In vitro inhibition of [35S]-TBPS binding to EDTA/water-dialyzed mouse brain P2 membranes; assay type: tissue-based

Chain of Gamma-aminobutyric acid receptor subunit gamma-1 (P23574 whole entry): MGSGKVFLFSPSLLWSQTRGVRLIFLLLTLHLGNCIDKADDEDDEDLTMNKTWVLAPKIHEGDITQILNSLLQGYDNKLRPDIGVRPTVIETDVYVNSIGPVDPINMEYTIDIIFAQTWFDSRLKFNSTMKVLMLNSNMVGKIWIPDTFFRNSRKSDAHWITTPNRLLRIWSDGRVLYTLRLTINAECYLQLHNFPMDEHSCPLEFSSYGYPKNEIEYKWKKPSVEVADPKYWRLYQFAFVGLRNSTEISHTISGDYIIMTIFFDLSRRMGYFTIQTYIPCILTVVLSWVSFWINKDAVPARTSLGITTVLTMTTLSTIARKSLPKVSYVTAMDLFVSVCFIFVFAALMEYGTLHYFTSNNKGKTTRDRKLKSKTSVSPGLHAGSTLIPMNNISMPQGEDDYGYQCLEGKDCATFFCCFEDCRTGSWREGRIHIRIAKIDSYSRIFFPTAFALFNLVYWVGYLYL

| Compound | inhibition [1] | inhibition [2] | IC50 [3] | IC50 [4] | inhibition [5] | IC50 [6] |
| --- | --- | --- | --- | --- | --- | --- |
| C#Cc1ccc(C23OCC(C(C)(C)C)(CO2)C(C#N)O3)cc1 (configuration not stated) | 59% | 68% | 25 nM | 0.25 nM | 61% | – |
| CC(C)(C)C12COC(c3ccc(C#N)cc3)(OC1)OC2 | – | – | 40 nM | – | – | 2.5 nM |
